Assay results reported in patent US10022372B2, “Caveolin-1 related methods for treating glioblastoma with temozolomide” (THOMAS JEFFERSON UNIVERSITY, priority 2013, dated 2018).

B1: full length Cav-1: full length Caveolin-1 protein administered in vitro (protein, UniProt Q03135 1-178, looked up)
chain: MSGGKYVDSEGHLYTVPIREQGNIYKPNNKAMADELSEKQVYDAHTKEIDLVNRDPKHLNDDVVKIDFEDVIAEPEGTHSFDGIWKASFTTFTVTKYWFYRLLSALFGIPMALIWGIYFAILSFLHIWAVVPCIKSFLIEIQCISRVYSIYVHTVCDPLFEAVGKIFSNVRINLQKEI
modifications: full-length
notes: full length Caveolin-1 protein administered in vitro

Experiments:
[1] = system: Cav-1 overexpressing U-87MG cells (LV105 Cav-1); assay: Annexin V / propidium iodide flow cytometry of TMZ-treated U-87MG cells; type: cell-based, human
Procedure: FIG. 5. […] Each group is normalized to its own DMSO control (*p<0.05 and **p<0.01 vs internal DMSO control, \p<0.01 vs TMZ treated LV105 control, n=3 per group).
U-87MG cells (50,000/well) were plated in 12-well tissue culture dishes and allowed to attach overnight prior to changing their medium into complete EMEM containing either 500 μM TMZ or DMSO control and culturing them for an additional 72 hours. Cells were then trypsinized, centrifuged at 300×g for 5 min and resuspended in binding buffer with APC-conjugated anti-Annexin V antibody (BP Biosciences) and 0.33 μg/ml Propidium Iodide (PI, KPL, Gaithersburg, Md.). All samples were run on a BD FACSCalibur flow cytometer (BD Biosciences). Cells were quantified according to staining as follows: viable (Annexin V negative, PI negative), early apoptotic (Annexin V positive, PI negative), late apoptotic (Annexin V positive, PI positive), and dead (Annexin V negative, PI positive).

[2] = cited from earlier work
[3] = system: three different GBM-derived cell lines; settings: in vitro administration, Boyden-chamber assay; cited from earlier work

Molecule	increase in early apoptotic cells compared to TMZ-treated LV105 control cells ([1]; Cav-1 overexpressing U-87MG cells, 500 μM, 72 hours, p<0.01) [%]	cytotoxicity at 500 µM ([1]; Homo sapiens, U-87 MG, 72 h, read-out: reduction in cell viability compared to TMZ treated LV105 control cells) [%]	stability at acidic pH ([2]; pH <5)	stability at pH>7 ([2]; pH >7)	invasion [3]
Cn1nnc2c(C(N)=O)ncn2c1=O [temozolomide, 3,4-dihydro-3-methyl-4-oxoimidazo[5,1-d]-αs-tetrazine-8-carboxamide]	> 400	5.5	stable	labile	
B1					prevented invasion
